The record followed here is article PMC8615111, “Phenolic Thiazoles with Antioxidant and Antiradical Activity. Synthesis, In Vitro Evaluation, Toxicity, Electrochemical Behavior, Quantum Studies and Antimicrobial Screening” (Antioxidants, 2021).

Assay [1] can be described thus: NO˙ radical scavenging assay (Griess reaction). It counts as biochemical. As to conditions: 100 µL of test solution 1 mg/mL in DMSO, 150 min, pH 7.4. As for the experimental part:
Scavenging of the NO˙ radical was performed according to some adapted protocols reported in the literature, based on the nitroprusside decomposition at physiological pH and colorimetric quantification of the resulted products using the Griess reaction.
Over 200 µL of 10 mM sodium nitroprusside, 100 µL of test solutions (1 mg/mL in DMSO), and 400 µL phosphate-buffered saline (PBS, pH = 7.4) were added. The mixture was then incubated at room temperature for 150 min on a rotating shaker (GFL Gesellschaft für Labortechnik, Burgwedel, Germany). After that, 1 mL of sulfanilic acid 0.33% in 20% acetic acid was added and after 5 min, 1 mL of naphthylethylenediamine […] 0.1% was added to all test tubes. After 30 min, the absorbance of the sample, given by the chromophore (azo dye) formed during the diazotization of nitrite ions resulting from decomposition of sodium nitroprusside with sulfanilic acid and coupled with naphthylethylenediamine, was measured at 546 nm. The NO˙ radical scavenging activity of the tested compounds was calculated using Equation (3):(3) NO˙ scavenging (%)=control absorbance−sample absorbance/control absorbance×100

Another assay in a line: Fe^2+ chelation assay. Type of assay: biochemical. As for the experimental part:
The protocol used for assessing Fe^2+ chelating capacity of the compounds was adapted from a report of Benzie and Strain and previously reported by our group. The iron(II) chelation ability of compounds was calculated using Equation (7):(7) iron chelation (%)=control absorbance−sample absorbance/control absorbance×100
The chelating potential for the ferrous ions of the new compounds was determined, based on their competition for Fe^2+ with ferrozine.

Another assay can be described thus: Cu^2+ chelation assay. Type of assay: biochemical.
Assay [2] can be described thus: ABTS˙^+ radical scavenging assay. It counts as biochemical. As for the experimental part: The assay was based on the decolorization of green (2,2′-azinobis-(3-ethylbenzothiazoline-6-sulfonic acid) ABTS˙^+ to ABTS, on the principle reported by Re et al. and was carried out according to our previously published research.
Later, 1950 µL of ABTS˙^+ reagent was added to all cuvettes and they were shaken for well over 10 min in the dark at room temperature. The absorbance of the resulted solutions found in cuvettes was determined spectrophotometrically at λ = 734 nm. The ABTS scavenging activity of the compounds was calculated using the following Equation (1):(1) ABTS scavenging (%)=control absorbance−sample absorbance/control absorbance×100

The nature of assay [3]: DPPH˙ radical scavenging assay. As to conditions: for IC50: DPPH˙ scavenging. It counts as biochemical. As to the method:
The 2,2-diphenyl-1-picrylhydrazyl (DPPH˙) radical scavenging assay is based on the transfer of one hydrogen from the analyzed compound to the violet radical DPPH˙. This will convert it to a yellow compound, the change in absorbance being proportional to the amount of DPPH˙ neutralized, according to Brand-Williams et al..
The preparation of the DPPH˙ reagent was previously reported by our group. […] Over the previous quantities, DMSO was added until a total volume of 50 µL was obtained in all cuvettes, and 1950 µL of DPPH˙ solution was added to all cuvettes; then, they were shaken for well over 10 min in the dark at room temperature. The absorbances of the solutions were measured at λ = 517 nm. The DPPH˙ radical scavenging activity of evaluated compounds was calculated using Equation (2):(2) DPPH scavenging (%)=control absorbance−sample absorbance/control absorbance×100

The test system of the next assay is HaCaT cells. Description: Cytotoxicity determination, MTT method. As to conditions: Homo sapiens, 24 h. It counts as cell-based. As for the experimental part:
To determine the cytotoxic action of the obtained compounds 5[…], and 8a-b, a normal human keratinocytes cell line was used (HaCaT keratinocytes, CLS-300493, Eppelheim, Germany). HaCaT cells were cultured in Dulbecco's Modified Eagle Media (DMEM) supplemented with 1% L-glutamine, 1% penicillin-streptomycin, and 5% fetal bovine serum. At 80% confluence, the cells were transferred to 96 well plates at a confluence of 12×10^3 cells/well and left to attach for 24 h at 37°C and 5% CO2 in a humidified atmosphere. […] After 24 h, the culture media was replaced with 100 μL of MTT solution at a final concentration of 5 μg/mL/well and left to interact with the cells for 2 h in the incubator. After this, the MTT solution was replaced with 100 μL of isopropanol, left to dissolve the formazan crystals for 5 min, and read at 550 and 630 nm using a BioTek Epoch plate reader (BioTek Instruments, Winooski, VT, USA) and Gen5 software (version 1.09).
For orientation: Tetrazolium dyes change colour on reduction, which living cells bring about.

Assay [4] is described as follows: TEMPO scavenging by differential pulse voltammetry. As to conditions: 2 mM TEMPO, one hour incubation, 0.1 M HClO4, DPV. As for the experimental part: The antioxidant properties were evaluated in terms of their activity against some free radicals, and other compounds reported in the literature, relevant for this purpose, such as: • ferric ions (Fe^3+)—used to test the reduction of the antioxidant character of the compounds; • DPPH˙ free radical– used to test the scavenging effect of the compounds on this radical; • hydrogen peroxide (H2O2)—used to test the scavenging effect of the synthesized molecules on this compound; • 2,2,6,6-tetramethylpiperidinyl-1-oxy (TEMPO)—used to test the scavenging effect of the synthesized molecules on this compound.
TEMPO (2,2,6,6-tetramethylpiperidine-N-oxyl) is a stable organic nitroxide radical that has been reported to scavenge carbon-centered radicals.
Differential pulse voltammetry (DPV) was then applied in order to evaluate the antioxidant effectiveness of the novel compounds through their ability to scavenge the free radical species.

For the next assay, the system named is P. aeruginosa ATCC 27853. Description: Antimicrobial activity, modified microdilution. It counts as cell-based. As to conditions: Pseudomonas aeruginosa, ATCC27853. As to the method: (§1) For evaluating the antimicrobial activity of the compounds, […] aerobic microbial strains were used: S. aureus ATCC 25923, S. pyogenes ATCC 19615, P. aeruginosa ATCC 27853, S. enterica ISM 83/37, S. typhimurium ATCC 14028, E. coli ATCC 8739, E. coli ATCC 25922, and C. albicans ATCC 102310 obtained from Food Biotechnology Laboratory, Life Sciences Institute, University of Agricultural Sciences, and Veterinary Medicine Cluj Napoca, where the experiment was performed. The antimicrobial activity of the compounds was determined using a modified microdilution technique, and the followed protocol was previously reported.
(§2) The antimicrobial activity of the final compounds, against seven aerobic microbial strains (S. aureus ATCC 25923, S. pyogenes ATCC 19615, P. aeruginosa ATCC 27853, S. enterica ISM 83/37, S. typhimurium ATCC 14028, E. coli ATCC 8739, E. coli ATCC 25922), and a fungal strain (C. albicans ATCC 102310), was determined using a modified microdilution technique.
(§3) The results of the antimicrobial activity evaluation of the compounds, in comparison to norfloxacin and chloramphenicol used as standard antibiotics and fluconazole used as reference antifungal, are depicted in Table 10.
In general terms: In broth dilution the organism is exposed to a series of concentrations in liquid medium.

A further assay concerns S. enterica ISM 83/37. Put plainly: Antimicrobial activity, modified microdilution. It counts as cell-based. The following applies: Salmonella enterica, ISM83/37. As for the experimental part: as §1, §2, §3
Another assay deals with S. aureus ATCC 25923. Description: Antimicrobial activity, modified microdilution. The following applies: Staphylococcus aureus, ATCC25923. Type of assay: cell-based. As for the experimental part: as §1, §2, §3
The test system of another assay is E. coli ATCC 8739. Description: Antimicrobial activity, modified microdilution. As to conditions: Escherichia coli, ATCC8739. Type of assay: cell-based. As to the method:
as §1, §2, §3

Another assay deals with S. pyogenes ATCC 19615. Description: Antimicrobial activity, modified microdilution. Type of assay: cell-based. As to conditions: Streptococcus pyogenes, ATCC19615. As to the method: as §1, §2, §3
A further assay deals with E. coli ATCC 25922. Description: Antimicrobial activity, modified microdilution. Type of assay: cell-based. As to conditions: Escherichia coli, ATCC25922. As for the experimental part:
as §1, §2, §3

For assay [5], the system named is S. typhimurium ATCC 14028. Description: Antimicrobial activity, modified microdilution. Type of assay: cell-based. The following applies: Salmonella enterica. As for the experimental part: as §1, §2, §3
Another assay has as its system C. albicans ATCC 102310. Put plainly: Antifungal activity, modified microdilution. The following applies: Candida albicans, ATCC102310. It counts as cell-based. As for the experimental part: as §1, §2, §3

Values after ≈ are worked out from the molar mass of the structure shown. Where two headings read alike, the source gives them in different places.

As to `O=C(O)c1cc(O)ccc1O` [Gentisic acid, reference compound], in [1], the “% of NO˙ Scavenged” value is reported as 47.33%.
Regarding “disodium salt of ethylenediaminetetraacetic acid [EDTA-Na2, reference compound]”, the “Chelation Capacity (%), ferrous ions” value in “Fe^2+ chelation assay” (50 µg/mL) was 20.86%; in the assay “Fe^2+ chelation assay” (100 µg/mL), 57.32%; in “Fe^2+ chelation assay” (150 µg/mL), over 95.00%; in “Fe^2+ chelation assay” (200 µg/mL), over 95.00%. Besides, the “Chelation Capacity (%), cupric ions” value in “Cu^2+ chelation assay” (3.36 µg/mL) is recorded as 12.36%; in “Cu^2+ chelation assay” (6.72 µg/mL), 19.61%; in “Cu^2+ chelation assay” (10.08 µg/mL), 29.97%; in “Cu^2+ chelation assay” (13.44 µg/mL), 39.18%; in the assay “Cu^2+ chelation assay” (16.80 µg/mL), 45.86%.
As usually defined, the IC50 is the point on the concentration scale where inhibition reaches its midpoint. On to `O=C1O[C@H]([C@@H](O)CO)C(O)=C1O` [Ascorbic acid, reference compound], for which the “% of ABTS˙^+ Scavenged” value amounted to 9.56% in assay [2] (0.5 µg/mL); 14.32% in assay [2] (0.75 µg/mL); 20.61% in assay [2] (1 µg/mL); 38.24% in assay [2] (1.5 µg/mL); 64.58% in assay [2] (2.5 µg/mL). For the same compound, the IC50 in assay [2] (ABTS˙^+ scavenging) was 1.97 µg/mL (≈ 11.2 µM); in assay [3], 2.89 µg/mL (≈ 16.4 µM); in the assay with HaCaT cells (HaCaT), 22.8 µg/mL; in the assay with HaCaT cells (HaCaT cells, MTT, read-out: IC50), 129 µM. Moreover, the “% of DPPH˙ Scavenged” value in [3] (1 µg/mL) was determined as 19.39%; in [3] (1.5 µg/mL) it was 29.10%; in assay [3] (2 µg/mL) it was 38.27%; in [3] (3 µg/mL), 53.42%; in [3] (5 µg/mL), 80.28%. Besides, the “oxidation signal for TEMPO after incubation with the compound” value in [4] is listed as “decreases”.
Take `Cc1c(C)c2c(c(C)c1O)CCC(C)(C(=O)O)O2` (centres unmarked) [Trolox, reference compound]: the “% of DPPH˙ Scavenged” value came to 10.83% in assay [3] (1 µg/mL); 17.10% in [3] (1.5 µg/mL); 20.56% in assay [3] (2 µg/mL); 31.91% in assay [3] (3 µg/mL); 53.67% in assay [3] (5 µg/mL). For the same compound, the IC50 in [3] is recorded as 4.68 µg/mL (≈ 18.7 µM). For the same compound, the “% of NO˙ Scavenged” value in [1] was found to be 32.12%.
As a reminder, the MIC is the lowest concentration found to suppress growth. Higher therefore signals weaker potency. As to `CCn1cc(C(=O)O)c(=O)c2cc(F)c(N3CCNCC3)cc21` [Norfloxacin, reference compound], the MIC against P. aeruginosa ATCC 27853 was 7.8 µg/mL (≈ 24.4 µM); against S. enterica ISM 83/37, under 0.48 µg/mL; against S. aureus ATCC 25923 it was 0.48 µg/mL (≈ 1.5 µM); with E. coli ATCC 8739, under 0.48 µg/mL; in the assay with S. pyogenes ATCC 19615, under 0.48 µg/mL; against E. coli ATCC 25922 it was 7.8 µg/mL (≈ 24.4 µM). For the same compound, the minimal inhibitory concentration (MIC) in assay [5] was under 0.48 µg/mL.
The compound `OC(Cn1cncn1)(Cn1cncn1)c1ccc(F)cc1F` [Fluconazole, reference compound] had an MIC with C. albicans ATCC 102310 of 31.2 µg/mL (≈ 102 µM).
Turning to `O=C(N[C@H](CO)[C@H](O)c1ccc([N+](=O)[O-])cc1)C(Cl)Cl` [Chloramphenicol, reference compound], the minimum inhibitory concentration (MIC) came to 0.48 µg/mL (≈ 1.49 µM) in the assay with P. aeruginosa ATCC 27853; 3.9 µg/mL (≈ 12.1 µM) in the assay on S. enterica ISM 83/37; 7.8 µg/mL (≈ 24.1 µM) against S. aureus ATCC 25923; 7.8 µg/mL (≈ 24.1 µM) in the assay on E. coli ATCC 8739; 3.9 µg/mL (≈ 12.1 µM) with S. pyogenes ATCC 19615; 3.9 µg/mL (≈ 12.1 µM) in the assay on E. coli ATCC 25922. This compound also gave a minimum inhibitory concentration (MIC) in assay [5] of under 0.48 µg/mL.
